Reference: ChEMBL document CHEMBL4152288, “Medicinal Chemistry and Use of Myosin II Inhibitor ( S)-Blebbistatin and Its Derivatives” (J Med Chem, 2018)
≈ marks a conversion by molar mass, not a printed value. Blank lines part the entries; values can stand above or below the compound they belong to.

How the values were obtained:
Myosin-2 heavy chain [1] = molecular target: T1, Myosin-2 heavy chain (Dictyostelium discoideum, UniProt P08799); assay: Inhibition of Dictyostelium discoideum myosin 2 ATPase activity by NADH-coupled assay
T1 sequence (P08799 whole entry): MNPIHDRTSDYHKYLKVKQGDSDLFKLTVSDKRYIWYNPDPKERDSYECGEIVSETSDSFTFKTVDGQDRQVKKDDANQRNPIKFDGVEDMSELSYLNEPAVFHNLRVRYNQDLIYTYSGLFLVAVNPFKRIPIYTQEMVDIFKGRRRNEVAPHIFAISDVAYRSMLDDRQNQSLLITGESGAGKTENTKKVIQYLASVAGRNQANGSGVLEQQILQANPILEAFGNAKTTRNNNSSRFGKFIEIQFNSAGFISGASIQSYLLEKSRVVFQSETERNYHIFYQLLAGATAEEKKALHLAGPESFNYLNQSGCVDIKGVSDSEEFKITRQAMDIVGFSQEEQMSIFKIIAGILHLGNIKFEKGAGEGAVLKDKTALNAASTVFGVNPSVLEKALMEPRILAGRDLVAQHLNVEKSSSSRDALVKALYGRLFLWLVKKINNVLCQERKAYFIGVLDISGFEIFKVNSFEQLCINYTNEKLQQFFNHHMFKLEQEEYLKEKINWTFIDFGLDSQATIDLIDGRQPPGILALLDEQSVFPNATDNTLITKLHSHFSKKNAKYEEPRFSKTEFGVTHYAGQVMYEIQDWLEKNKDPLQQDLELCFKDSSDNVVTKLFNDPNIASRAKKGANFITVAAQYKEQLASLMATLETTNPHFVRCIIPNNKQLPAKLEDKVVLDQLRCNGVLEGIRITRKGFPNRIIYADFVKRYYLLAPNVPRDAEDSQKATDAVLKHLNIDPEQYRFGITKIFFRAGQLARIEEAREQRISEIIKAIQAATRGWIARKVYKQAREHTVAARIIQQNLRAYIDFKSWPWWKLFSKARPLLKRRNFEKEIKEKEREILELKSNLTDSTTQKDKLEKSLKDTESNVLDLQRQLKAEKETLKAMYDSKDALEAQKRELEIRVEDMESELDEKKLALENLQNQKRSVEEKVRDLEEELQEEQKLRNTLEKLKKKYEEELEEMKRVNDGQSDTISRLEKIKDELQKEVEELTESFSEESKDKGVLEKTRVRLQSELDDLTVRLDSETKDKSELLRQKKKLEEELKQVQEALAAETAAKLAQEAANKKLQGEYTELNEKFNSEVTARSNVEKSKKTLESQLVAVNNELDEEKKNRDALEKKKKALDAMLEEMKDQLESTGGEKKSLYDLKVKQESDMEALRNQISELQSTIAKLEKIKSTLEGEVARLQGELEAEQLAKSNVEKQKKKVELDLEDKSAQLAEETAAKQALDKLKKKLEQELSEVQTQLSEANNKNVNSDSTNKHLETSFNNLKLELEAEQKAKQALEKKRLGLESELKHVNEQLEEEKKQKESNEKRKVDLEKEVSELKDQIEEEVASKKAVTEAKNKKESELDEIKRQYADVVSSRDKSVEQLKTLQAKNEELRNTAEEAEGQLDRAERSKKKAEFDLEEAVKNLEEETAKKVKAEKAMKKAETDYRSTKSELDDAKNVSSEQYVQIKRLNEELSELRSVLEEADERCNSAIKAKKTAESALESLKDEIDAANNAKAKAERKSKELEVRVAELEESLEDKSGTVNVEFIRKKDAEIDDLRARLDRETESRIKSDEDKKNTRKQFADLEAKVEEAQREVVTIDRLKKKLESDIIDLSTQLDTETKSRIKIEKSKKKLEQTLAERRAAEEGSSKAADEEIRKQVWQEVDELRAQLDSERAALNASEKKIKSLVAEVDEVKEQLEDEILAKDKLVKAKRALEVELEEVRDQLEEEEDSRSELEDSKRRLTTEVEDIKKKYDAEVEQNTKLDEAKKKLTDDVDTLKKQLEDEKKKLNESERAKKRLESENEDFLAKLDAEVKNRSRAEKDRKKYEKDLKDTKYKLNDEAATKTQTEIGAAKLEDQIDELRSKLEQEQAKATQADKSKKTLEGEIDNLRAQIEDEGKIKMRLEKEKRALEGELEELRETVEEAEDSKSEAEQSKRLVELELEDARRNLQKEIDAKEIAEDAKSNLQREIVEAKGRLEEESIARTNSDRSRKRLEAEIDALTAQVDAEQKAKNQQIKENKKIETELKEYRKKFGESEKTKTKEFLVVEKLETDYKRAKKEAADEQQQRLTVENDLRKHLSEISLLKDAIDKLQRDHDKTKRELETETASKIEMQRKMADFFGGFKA

[2] = Inhibition of Meleagris gallopavo smooth muscle myosin 2 ATPase activity
[3] = Inhibition of bay scallop striated muscle myosin heavy chain
[4] = Inhibition of chicken smooth muscle myosin 2 ATPase activity preincubated for 60 mins followed by ATP addition measured after 10 mins by malachite green based assay
[5] = molecular target: Nonmuscle myosin heavy chain (Gallus gallus, UniProt Q789A4); assay: Inhibition of chicken non-muscle myosin 2b by NADH-coupled spectrophotometric analysis
Unconventional myosin-Va = Unconventional myosin-Va (Mus musculus, UniProt Q99104); assay: Inhibition of mouse myosin 5a by NADH-coupled spectrophotometric analysis
Unconventional myosin-XV = Unconventional myosin-XV (Homo sapiens, UniProt Q9UKN7); assay: Inhibition of human myosin 15 by NADH-coupled spectrophotometric analysis
Myosin-14 = Myosin-14 (Mus musculus, UniProt Q6URW6); assay: Inhibition of mouse non-muscle myosin 2c
[6] = molecular target: Myosin heavy chain, non-muscle (Drosophila melanogaster, UniProt Q99323); assay: Inhibition of fruit fly non-muscle myosin 2
Myosin-7 = Myosin-7 (Sus scrofa, UniProt P79293); assay: Inhibition of pig beta cardiac myosin 2 by NADH-coupled spectrophotometric analysis
[7] = Inhibition of Bos taurus smooth muscle myosin 2 ATPase activity
Myosin-9 = Myosin-9 (Homo sapiens, UniProt P35579); assay: Inhibition of human non-muscle myosin 2a
Unconventional myosin-Ib = Unconventional myosin-Ib (Rattus norvegicus, UniProt Q05096); assay: Inhibition of rat myosin 1b by NADH-coupled spectrophotometric analysis
Myosin-10 = Myosin-10 (Homo sapiens, UniProt P35580); assay: Inhibition of human non-muscle myosin 2b
[8] = molecular target: Myosin-2 heavy chain, non muscle (Acanthamoeba castellanii, UniProt P05659); assay: Inhibition of dephosphorylated Acanthamoeba non muscle myosin 2 by NADH-coupled spectrophotometric analysis
Unconventional myosin-X = Unconventional myosin-X (Bos taurus, UniProt P79114); assay: Inhibition of bovine myosin x by NADH-coupled spectrophotometric analysis
Myosin-4 = Myosin-4 (Oryctolagus cuniculus, UniProt Q28641); assay: Inhibition of rabbit skeletal muscle myosin 2
Myosin-4, sequence (Q28641 whole entry): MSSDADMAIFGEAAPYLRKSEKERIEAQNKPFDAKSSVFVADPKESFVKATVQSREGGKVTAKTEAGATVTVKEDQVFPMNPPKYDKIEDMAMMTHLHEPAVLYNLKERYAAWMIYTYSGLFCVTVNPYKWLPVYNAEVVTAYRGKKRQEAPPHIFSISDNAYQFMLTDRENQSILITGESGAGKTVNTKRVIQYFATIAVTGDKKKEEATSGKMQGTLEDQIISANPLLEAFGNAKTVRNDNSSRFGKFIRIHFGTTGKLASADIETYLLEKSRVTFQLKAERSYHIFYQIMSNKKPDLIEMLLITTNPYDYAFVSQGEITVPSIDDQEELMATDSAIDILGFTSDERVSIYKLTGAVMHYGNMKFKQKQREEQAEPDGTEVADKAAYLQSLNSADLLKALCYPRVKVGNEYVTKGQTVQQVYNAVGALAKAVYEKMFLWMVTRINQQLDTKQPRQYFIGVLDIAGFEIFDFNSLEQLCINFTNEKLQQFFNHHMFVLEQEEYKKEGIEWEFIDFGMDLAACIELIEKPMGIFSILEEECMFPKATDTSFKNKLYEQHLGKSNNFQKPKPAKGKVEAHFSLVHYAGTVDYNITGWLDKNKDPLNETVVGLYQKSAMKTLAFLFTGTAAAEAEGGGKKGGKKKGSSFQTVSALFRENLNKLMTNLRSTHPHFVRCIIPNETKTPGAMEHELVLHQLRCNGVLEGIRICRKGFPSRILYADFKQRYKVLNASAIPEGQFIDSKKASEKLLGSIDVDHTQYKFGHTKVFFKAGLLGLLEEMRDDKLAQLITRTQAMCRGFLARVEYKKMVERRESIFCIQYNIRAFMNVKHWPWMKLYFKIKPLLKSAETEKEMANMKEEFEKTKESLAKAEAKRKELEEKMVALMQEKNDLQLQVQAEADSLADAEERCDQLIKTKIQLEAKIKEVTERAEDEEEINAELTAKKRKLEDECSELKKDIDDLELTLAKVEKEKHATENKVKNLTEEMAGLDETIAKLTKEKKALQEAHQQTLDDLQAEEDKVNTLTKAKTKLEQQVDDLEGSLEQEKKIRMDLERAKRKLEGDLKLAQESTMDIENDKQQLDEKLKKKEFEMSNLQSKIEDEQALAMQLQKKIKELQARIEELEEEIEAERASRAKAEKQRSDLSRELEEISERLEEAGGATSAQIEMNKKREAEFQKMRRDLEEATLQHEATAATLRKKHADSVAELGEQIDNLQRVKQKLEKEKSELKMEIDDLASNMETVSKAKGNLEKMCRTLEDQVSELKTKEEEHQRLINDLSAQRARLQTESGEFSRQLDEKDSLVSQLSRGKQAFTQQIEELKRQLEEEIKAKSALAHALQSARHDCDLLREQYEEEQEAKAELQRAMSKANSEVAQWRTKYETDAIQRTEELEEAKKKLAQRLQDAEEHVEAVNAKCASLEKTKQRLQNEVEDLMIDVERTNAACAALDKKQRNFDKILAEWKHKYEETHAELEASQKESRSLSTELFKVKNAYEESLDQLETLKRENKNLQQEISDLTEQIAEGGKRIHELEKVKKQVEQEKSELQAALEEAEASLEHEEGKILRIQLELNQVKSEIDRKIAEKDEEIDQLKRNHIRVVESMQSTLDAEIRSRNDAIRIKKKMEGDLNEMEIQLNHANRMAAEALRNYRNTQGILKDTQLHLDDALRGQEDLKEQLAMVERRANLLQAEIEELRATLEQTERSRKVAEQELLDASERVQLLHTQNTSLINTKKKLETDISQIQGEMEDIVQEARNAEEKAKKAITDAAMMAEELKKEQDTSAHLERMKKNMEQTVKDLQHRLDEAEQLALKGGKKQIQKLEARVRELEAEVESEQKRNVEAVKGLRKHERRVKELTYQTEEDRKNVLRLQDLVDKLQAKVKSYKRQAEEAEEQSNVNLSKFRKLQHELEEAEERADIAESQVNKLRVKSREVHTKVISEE

Myosin IC heavy chain = Myosin IC heavy chain (Acanthamoeba castellanii, UniProt P10569); assay: Inhibition of dephosphorylated Acanthamoeba […] myosin 1c by NADH-coupled spectrophotometric analysis
Myosin-2 heavy chain [9] = molecular target: T1, Myosin-2 heavy chain; assay: Inhibition of Dictyostelium discoideum myosin 2 ATPase activity
Oryctolagus cuniculus [10] = species: Oryctolagus cuniculus; assay: Inhibition of rabbit skeletal myosin 2 ATPase activity at 50 uM relative to control
Oryctolagus cuniculus [11] = species: Oryctolagus cuniculus; assay: Inhibition of rabbit skeletal myosin 2 ATPase activity at 5 uM relative to control
[12] = molecular target: Myosin-2 heavy chain (Dictyostelium discoideum) (UniProt P08799); assay: Inhibition of Dictyostelium discoideum myosin 2 ATPase activity at 50 uM relative to control
Myosin-2 heavy chain (Dictyostelium discoideum), sequence (P08799 whole entry): as the sequence (P08799 whole entry) above

[13] = Toxicity in zebrafish embryo assessed as mortality at 10 uM in presence 0.4 uJ/cm2 of irradiation measured after 36 hrs relative to control; format: organism-based, Danio rerio; details: zebrafish embryos, read-out: Activity
[14] = Toxicity in Dictyostelium discoideum assessed as mortality at 20 uM after 3 days relative to control; format: organism-based; details: Dictyostelium discoideum cells, read-out: Activity
[15] = Steady state aqueous solubility of the compound in 0.1 % DMSO buffer at 25 degC; format: physicochemical; details: aqueous buffer with 0.1% DMSO
[16] = Steady state aqueous solubility of the compound in 10 % DMSO buffer up to 240 mins; format: physicochemical; details: 4 h
LNCaP [17] = assay: Cytotoxicity against human LNCAP cells assessed as cell death at 200 uM after 24 hrs relative to control; format: functional
Capan-2 = assay: Cytotoxicity against human Capan2 cells assessed as cell death at 400 uM after 24 hrs; format: functional
LNCaP [18] = assay: Cytotoxicity against human LNCAP cells assessed as cell death at 200 uM after 3 hrs relative to control; format: functional
[19] = Cytotoxicity against F11-hTERT cells (unknown origin) assessed as cell death at 200 uM after 3 hrs relative to control; format: functional
[20] = Cytotoxicity against human Fem-X cells assessed as cell death at 200 uM after 3 hrs relative to control; format: functional
[21] = Cytotoxicity against human Fem-X cells assessed as cell death at 200 uM after 24 hrs relative to control; format: functional
[22] = Cytotoxicity against F11-hTERT cells (unknown origin) assessed as cell death at 200 uM after 24 hrs relative to control; format: functional
DU-145 [23] = assay: Cytotoxicity against human DU145 cells assessed as cell death at 200 uM after 24 hrs relative to control; format: functional
MIA PaCa-2 = assay: Cytotoxicity against human MIAPaCa2 cells assessed as cell death at 400 uM after 24 hrs; format: functional
HeLa = assay: Cytotoxicity against human HeLa cells assessed as cell death at 20 uM measured after 3 days by trypan blue based light microscopy relative to control
DU-145 [24] = assay: Cytotoxicity against human DU145 cells assessed as cell death at 200 uM after 3 hrs relative to control; format: functional
PANC-1 = assay: Cytotoxicity against human PANC1 cells assessed as cell death at 400 uM after 24 hrs; format: functional
U-87 MG [25] = assay: Cytotoxicity against human U87 cells assessed as cell death at 200 uM after 24 hrs relative to control; format: functional, U-87MG ATCC
BXPC-3 = assay: Cytotoxicity against human BxPC3 cells assessed as cell death at 400 uM after 24 hrs; format: functional
U-87 MG [26] = assay: Cytotoxicity against human U87 cells assessed as cell death at 200 uM after 3 hrs relative to control; format: functional, U-87MG ATCC
[27] = Inhibition of human myosin 2a ATPase activity

IC50 (Myosin-2 heavy chain [1]): 5.2 µM
Structure (SMILES): Cc1ccc2c(c1)C(=O)[C@]1(O)CCN(c3ccc(N=[N+]=[N-])cc3)C1=N2

IC50 [2]: 80 µM
IC50 [3]: 2.3 µM
IC50 [4]: 5.5 to 23.5 µM
IC50 [5]: 1.8 µM
IC50 (Unconventional myosin-Va): > 150 µM
IC50 (Unconventional myosin-XV): > 100 µM
IC50 (Myosin-14): 3.2 µM
IC50 [6]: > 200 µM
IC50 (Myosin-7): 1.2 µM
IC50 [7]: 4.3 to 11 µM
IC50 (Myosin-9): 4 to 14 µM
IC50 (Unconventional myosin-Ib): > 150 µM
IC50 (Myosin-10): 4.6 µM
IC50 [8]: 83 µM
IC50 (Unconventional myosin-X): > 150 µM
IC50 (Myosin-4): 0.22 to 4.32 µM
IC50 (Myosin IC heavy chain): > 150 µM
Structure (SMILES): Cc1ccc2c(c1)C(=O)C1(O)CCN(c3ccccc3)C1=N2 (racemic)

IC50 (Myosin-2 heavy chain [9]): 1.9 µM
Structure (SMILES): Cc1ccc2c(c1)C(=O)[C@]1(O)CCN(c3ccc(Cl)cc3)C1=N2

inhibition (Oryctolagus cuniculus [10]): 94%
inhibition (Oryctolagus cuniculus [11]): 86%
inhibition [12]: 90%
Structure (SMILES): Cc1ccc2c(c1)N=C1N(c3ccccc3)CC[C@@]1(O)C2=O

Structure (SMILES): Cc1ccc2c(c1)C(=O)[C@]1(O)CCN(c3ccccc3)C1=N2
mortality at 36 h, 10 µM [13]: 100%
mortality at 72 h, 20 µM [14]: 0%
solubility [15]: 7 to 11 µM (≈ 2.05 to 3.22 µg/mL)
solubility [16]: 80 µM (≈ 23.4 µg/mL)
Activity (LNCaP [17]): 96%
Activity (Capan-2): 45%
Activity (LNCaP [18]): 10%
Activity [19]: 30%
Activity [20]: 30%
Activity [21]: 100%
Activity [22]: 85%
Activity (DU-145 [23]): 90%
Activity (MIA PaCa-2): 20%
Activity (HeLa): 90%
Activity (DU-145 [24]): 30%
Activity (PANC-1): 0%
Activity (U-87 MG [25]): 65%
Activity (BXPC-3): 25%
Activity (U-87 MG [26]): 40%

IC50 [27]: 28 µM
Structure (SMILES): O=C1c2ccc([N+](=O)[O-])cc2N=C2N(c3ccccc3)CC[C@@]12O

inhibition (Oryctolagus cuniculus [10]): 95%
inhibition (Oryctolagus cuniculus [11]): 84%
inhibition [12]: 88%
Structure (SMILES): O=C1c2ccccc2N=C2N(c3ccccc3)CC[C@@]12O

inhibition (Oryctolagus cuniculus [10]): 95%
inhibition (Oryctolagus cuniculus [11]): 86%
inhibition [12]: 88%
Structure (SMILES): Cc1cccc2c1C(=O)[C@]1(O)CCN(c3ccccc3)C1=N2

IC50 (Myosin-2 heavy chain [1]): 2.3 µM
IC50 (Myosin-4): 0.4 µM
Structure (SMILES): Cc1ccc2c(c1)C(=O)[C@]1(O)CCN(c3ccc([N+](=O)[O-])cc3)C1=N2

inhibition (Oryctolagus cuniculus [10]): 72%
inhibition (Oryctolagus cuniculus [11]): 31%
inhibition [12]: 35%
Structure (SMILES): Cc1cccc2c1N=C1N(c3ccccc3)CC[C@@]1(O)C2=O
